Experimental data as given in US6469013B2, “Therapeutic compounds” (Parker Hughes Institute, priority 1998, dated 2002).

How the values were obtained:
C57BL/6 recipients [1] = assay: Allogeneic islet transplantation (BALB/c islets); assay type: in vivo, mouse
Description: Islets were hand-picked 3-4 times under the dissecting scope before islets were free of exocrine tissue, vessels, lymph nodes and ducts and ready for transplantation.
Four hundred islets were placed in Hamilton syringe and transplanted under the left kidney capsule of each diabetic recipient mouse. Recipients were rendered diabetic with a single i.p. dose of streptozotocin (200 mg/kg; Sigma, St. Louis, Mo.) 1 wk before transplantation. Blood glucose level was measured by One Touch Profile glucose monitor system (Lifescan, Milpitas, Calif.). […] Allograft function was monitored by serial blood glucose measurements. […] All injections were given i.p.
(§1) Kidneys bearing grafts were removed, fixed in 10% formalin and embedded in paraffin. Serial sections of graft area were cut and stained with hematoxylin and eosin. For insulin staining, sections were stained by immunoperoxidase method using 1:100 dilution of polyclonal guinea pig anti-insulin antibody (Gpx Insulin, Dako, Carpinteria, Calif.) and 1:100 dilution of secondary antibody conjugated to horse radish peroxidase (Guinea Pig Immunoglobulins HRP, Dako, Carpinteria, Calif.). Sections were briefly counterstained with hematoxylin and mounted for light microscopic examination.

skh-1 mice = assay: Acute UVB skin inflammation: skinfold thickness, morphology, histology; assay type: in vivo, mouse; conditions: 48 h post UVB; UVB vehicle 3-5, normal 2-3
From the text: A bank of 8-FSX24T12/HO/UVB lamps (National Biological Corporation, Twinsburg, Ohio) that emits light predominantly in the UVB range, 280-320 nm was used to irradiate mice and cell cultures. The irradiance of UVB lamps was always measured before irradiation using a UVB meter (model—500C obtained from National Biological Corporation, Twinsburg, Ohio). The dose of UVB light used to irradiate cultures was 25 mj/cm^2. Anesthetized mice received UVB radiations to a 2.0 cm^2 area on their dorsal surface. This area was painted either with the test compound (1.5 mg/cm^2) in drug receiving mice, or with vehicle in control mice fifteen minutes before irradiation. The distance between UVB lamps and surface receiving irradiation was 20 cm. The final radiation dose received by skh-1 hairless mice was 250 mj/cm^2 which is approximately seven times higher than the minimal erythema dose (MED) (17) in these mice. […]
Morphological appearance of the UVB irradiated skin was monitored visually and compared with the control mice skin. Skinfold thickness of the dorsal surface of the mice was recorded before, and everyday after UVB exposure for five days with a digital thickness gauge (Mitutoyo, So. Plainfield, N.J.) which measures thickness in 0-10 mm range with an accuracy of 0.015 mm. […]

C57BL/6 recipients [2] = assay: Syngeneic islet graft function under long-term treatment; assay type: in vivo, mouse; conditions: 50 mg/kg
Description: Mice were fasted for 10 hours, and the glucose solution (1.5 g/kg body weight) was injected i.p. Before and after injection of glucose, blood samples were taken and blood glucose levels were measured (as described above) at 0, 30, 60 and 120 min time points.
as §1, with “The vehicle control—(n=3) and WHI-P131-treated C57BL/6 recipients (n=5) of islet allograft were sacrificed on day 14 post transplantation; Jak3 recipients (n=6) were sacrificed on day 100 post transplantation; the C57BL/6 recipients of syngeneic islets—vehicle control—(n=4) and WHI-P131-treated (n=5) were sacrificed on day 180 post transplantation. Kidneys” for “Kidneys”

[3] = test system: HaCaT human epidermal cells; assay: UVB-induced PGE2 release (EIA); assay type: cell-based; conditions: light or radiation study, UVB 25 mj/cm^2, 6 h, read-out: inhibition in UVB light induced prostaglandin release
From the text: HaCaT, which is a spontaneously transformed human epidermal cell line (16) was maintained in Dulbecco's modified Eagle's medium (DMEM) supplemented with 10% fetal bovine serum (Summit Biotech, Ft. Collins, Colo.).
A bank of 8-FSX24T12/HO/UVB lamps (National Biological Corporation, Twinsburg, Ohio) that emits light predominantly in the UVB range, 280-320 nm was used to irradiate mice and cell cultures. The irradiance of UVB lamps was always measured before irradiation using a UVB meter (model—500C obtained from National Biological Corporation, Twinsburg, Ohio). The dose of UVB light used to irradiate cultures was 25 mj/cm^2. Anesthetized mice received UVB radiations to a 2.0 cm^2 area on their dorsal surface. […]
Confluent HaCaT cells cultured in 24-well culture dishes were washed three times with serum-free DMEM containing 1% bovine serum albumin (BSA) (Cayman chemicals, Ann Arbor, Mich.) and incubated with 3-30 μM compound compound 6 for 1 hour at 37° C. After incubation the cells were washed twice with PBS, and either exposed to 25 mj/cm^2 UVB light or stimulated with 50 ng/ml rhEGF, and fed with serum-free DMEM containing 1% BSA. compound 6 was readministered and the cells were incubated for 6 h at 37° C. […] Cellular protein was determined using the Pierce's BCA protein assay method (Smith, P. K., et al., 1985, Anal Biochem. 150 (1):76-85).

COc1cc2ncnc(Nc3ccc(O)cc3)c2cc1OC [WHI-P131, 4-(4′-hydroxyl-phenyl)-amino-6,7-dimethoxyquinazoline]
islet allograft mean survival time (MST) (C57BL/6 recipients [1]; 50 mg/kg daily i.p., controls 14.1±0.9): 24.7±3.4 days | islet allograft mean survival time (MST) (C57BL/6 recipients [1]; 75 mg/kg daily i.p.): 25.3±3.8 days | cell layers of epidermis (skh-1 mice): 1-2 cell layers | IPGTT, islet function vs controls (C57BL/6 recipients [2]; day 70): no significant difference in islet function | nonfasting blood glucose (C57BL/6 recipients [2]; day 70 of treatment): 124.6 ± 10.8 mg/dL | IPGTT, islet function vs controls (C57BL/6 recipients [2]; day 180): not different | insulin expression in syngeneic grafts vs vehicle (C57BL/6 recipients [2]; day 180, immunohistochemistry): comparable | non-fasting blood glucose level (C57BL/6 recipients [2]; day 180 post transplantation): 115.2 ± 9.2 mg/dL | non-fasting blood glucose level vs vehicle control (C57BL/6 recipients [2]; entire period of 180 days): did not differ | inhibition at 30 µM [3]: ~90%
